Where no end group is shown, it is not given here.
Tests used:
[1] = tested on: ICAM-1 expression in HUVECs; experiment: ICAM-1 expression in HUVECs pre-treated 5 days with dexamethasone, then oxidatively stressed with PMA (ELISA); assay type: cell-based, Human; settings: then 1 μM PMA, HUVEC
Method: An in vitro model has been developed to investigate the impact of chronic stress on the inflammatory status of endothelial cells. • a. Cells are grown in 6-well (9.5 cm^2) plates. • b. […] Tissue culture supernatant and cell pellets are harvested at timepoint T0. • d. The cells are oxidatively stressed with 1 μM Phorbol Myristate Acetate (PMA). • e. Tissue culture supernatant and cell pellets were harvested at 6, 24 and 48 hours (T6, T24 and T48, respectively) post-PMA treatment. • f. All tissue culture supernatant was assayed for Lactate Dehydrogenase (LDH), as a measure of cytotoxicity, and Interleukin-6 synthesis. • g. All cells were counted (Beckman Coulter Counter) and pelleted and cell lysate assayed for ICAM-1 expression (Intra Cellular Adhesion Molecule 1).
HUVEC cells (Human umbilical vein endothelial cells, TCS Biologicals) were cultured and passaged in EGM-2 (Endothelial growth medium, Biowhittaker) supplemented with heparin, VEGF (vascular endothelial growth factor), gentamicin sulphate, ascorbic acid, HEGF (Human endothelial growth factor), hydrocortisone, HFGF-B (Human fibroblast growth factor B), R3-IGF-1 (long R insulin-like growth factor 1) and FBS (foetal bovine serum).
Cells were routinely plated out in 6-well tissue culture dishes, at a seeding density of ˜5000 cells/cm^2 in 2 ml complete medium/well, 48 hours before starting the experiment, and incubated at 37° C. in 5% CO2.
Pre-treatment and test solutions were prepared in EGM-2 containing all supplements except hydrocortisone.
(§1) Following this, the cells were oxidatively stressed for 24 hours with 1 μM PMA (Sigma P8139).
(§2) Receptor antagonists were added to the cells during the pre-treatment period. These included the Glucocorticoid Receptor Antagonist; 2 μM Mifepristone (Sigma M8046) and two CRH receptor antagonists; 200 nM Astressin (Sigma A4933) and 200 nM α-helical CRF peptide antagonist (Sigma C2917).
Any change in cell morphology was noted before the cells were harvested. Both the tissue culture supernatant and the endothelial cells were harvested after the five-day pre-treatment period (T0), at 6 hours and 24 hours after addition of PMA (T6 and T24) and at 24 hours after removal of the PMA (T48). All tissue culture supernatants were stored at −20° C.
All cell pellets were lysed on ice for 30 minutes in 1 ml cell lysis buffer per 2.5×10^6 cells. The lysis buffer contained 1% NP-40, 0.1% sodium deoxycholate, 0.1% SDS, 6 mM sodium chloride and 0.05M Tris at pH 7.6. Protease inhibitor cocktail ([…]; Sigma P8340) was added prior to use at a level of 10 μl per ml of lysis buffer. The partially lysed cell pellets were completely homogenised with a pellet pestle and unwanted cell debris removed by centrifugation for 20 minutes at 20,000 g at 4° C. The clarified cell lysate was frozen at −80° C. until needed.
The total protein concentration of each cell lysate was measured using the Pierce BCA protein assay kit. A set of eight standard solutions ranging from 0 to 1200 μg/ml protein was prepared from the supplied 2 mg/ml BSA stock solution. 10 μl of standard or cell lysate was added to duplicate wells of a flat-bottomed, 96-well microtitre plate. The reagent solution was prepared according to the kit instructions from 50 parts reagent A and 1 part reagent B. 200 μl of the final reagent was added to each well of the microtitre plate. The plate was mixed, covered and incubated at 37° C. for 30 minutes and absorbance read at 562 nm.
(§3) ICAM-1 protein in each cell lysate was estimated using the Human sICAM-1 DuoSet ELISA kit (R&D Systems DY720) according to the manufacturer's instructions.
The capture antibody was diluted to a final concentration of 4 μg/ml in PBS and 100 μl was used to coat each well of a 96-well microtitre plate overnight at room temperature. The plate was then washed three times with wash buffer (0.05% Tween 20 in PBS).

[2] = tested on: MMP-1 expression in human neonatal dermal fibroblast cells; experiment: Active MMP-1 in neonatal-derived human dermal fibroblasts after chronic dexamethasone and PMA; assay type: cell-based; settings: agent added during dexamethasone pre-treatment; dermal fibroblasts
Method: (§4) In this study, to understand better the effect of chronic stress on dermal matrix remodelling in the skin, we have therefore measured changes in markers of dermal matrix degradation (MMP-1) and dermal matrix synthesis (Procollagen I) in chronically glucocorticoid-treated primary human dermal fibroblasts, following acute stress with PMA. The experimental approach is similar to that described in example 1 except that the cells tested are dermal fibroblasts and cells are assayed for expression of procollagen-1, MMP-1 and MMP-9 expression.
(§5) Primary human dermal fibroblast cells were cultured and passaged in DMEM (Gibco) supplemented with 10% FBS (foetal bovine serum). Cells were routinely plated out in 6-well tissue culture dishes, at a seeding density of ˜5000 cells/cm^2 in 2 ml complete medium/well for 24 hours, and incubated at 37° C. in 5% CO2. Media was removed and cells grown in DMEM & 1% FBS, 24 hours prior to treatments.
(§6) Pre-treatment and test solutions were prepared in DMEM containing low serum (1% FBS). […] Following this, the cells were oxidatively stressed for 24 hours with 1 μM PMA (Sigma P8139).
MMP-1 and MMP-9 protein in each cell supernatant was estimated using the Human active MMP-1 and MMP-9 Fluorokine enzyme kit (R&D Systems F1M00 and F9M00, respectively), according to the manufacturer's instructions.
Six MMP-1 and MMP-9 standards were prepared in calibrator diluent at concentrations ranging from 0.39 to 12.5 ng/ml and 0.25 to 16 ng/ml, respectively. 100 μl of assay diluent and 150 μl of tissue culture supernatant or standard was added to duplicate wells. The plate was incubated at room temperature for 3 hours on a horizontal orbital plate shaker before being washed four times with wash buffer. 200 μl of APMA was added to each well and the plate incubated at 37° C. for 2 hours in a humidified environment and protected from the light. The plate was washed as before. Each well received 200 μl of substrate solution and the plate incubated at 37° C. for 17-20 hours in a humidified environment and protected from the light. The relative fluorescence unit (RFU) of each well was determined using a fluorescence plate set with 1×20 mS integration time, plate speed ˜6; excitation wavelength set to 320 nm and emission wavelength set to 405 nm.
A standard curve was plotted of mean RFU versus MMP-1 and MMP-9 concentration (respectively), and the line of best fit calculated by regression analysis. The unknown concentration of either active MMP-1 or MMP-9 protein in all of the samples was estimated from this.
(§7) The same methods were used as described in Example 2, except that various test agents were added to the cells during the pre-treatment period.

[3] = tested on: procollagen-1 expression in human neonatal dermal fibroblast cells; experiment: Procollagen I C-peptide EIA in neonatal-derived human dermal fibroblasts after chronic dexamethasone and PMA; assay type: cell-based; settings: agent added during dexamethasone pre-treatment; dermal fibroblasts
Method: as §4, §5, §6
Collagen I is synthesised as a precursor molecule, Procollagen I. The amount of free propeptide therefore, reflects stoichiometrically, the amount of collagen I synthesised. The Procollagen Type I C-peptide Enzyme Immunoassay (EIA) kit allows for the quantitative determination of Procollagen Type I C-peptide (PIP).
Eight PIP standards were prepared in sample diluent at concentrations ranging from 0 to 640 ng/ml. 100 μl of antibody-Peroxidase conjugate solution and 20 μl of cell lysate (1 μg protein) or standard was added to duplicate wells. The plate was sealed and incubated at 37° C. for 3 hours before being washed four times with 400 μl of PBS. Each well then received 100 μl of substrate solution and the plate incubated at room temperature, on the benchtop, for 15 minutes. After this period, 100 μl stop solution was added to each well and absorbance measured at 450 nm with a plate reader.
A standard curve was plotted of mean absorbance versus PIP concentration and the line of best fit calculated by regression analysis. The unknown concentration of PIP in all the samples was estimated from this.
as §7

[4] = tested on: ICAM-1 expression in HUVECs; experiment: ICAM-1 expression in HUVECs chronically treated with CRH, then PMA; assay type: cell-based, Human; settings: data not shown
Method: as §1, §2, §3
The capture antibody was diluted to a final concentration of 4 μg/ml in PBS and 100 μl was used to coat each well of a 96-well microtitre plate overnight at room temperature. The plate was then washed three times with wash buffer (0.05% Tween 20 in PBS). Each well received 300 μl of blocking buffer (1% BSA, 5% sucrose and 0.05% sodium azide in PBS), and the plate was incubated at room temperature for 1 hour before being washed as before. Each cell lysate was then diluted 1/200 in reagent diluent (1% BSA in PBS) and 100 μl added to duplicate wells of the antibody coated plate. Eight ICAM-1 standards were prepared in reagent diluent, at concentrations ranging from 0 to 1000 pg/ml, and duplicate 100 μl standards were added to the appropriate wells on the plate. A separate set of standards was routinely used for each plate. The plate was incubated at room temperature for 2 hours before being washed again. 100 μl of detection antibody, diluted to a final concentration of 100 ng/ml, was added to each well and the plate incubated at room temperature for 2 hours. […] The absorbance of the plates was measured at 450 nm with the correction wavelength set at 570 nm.
A standard curve was plotted of mean absorbance versus ICAM-1 concentration and the line of best fit calculated by regression analysis. The unknown concentration of ICAM-1 in the samples was calculated from this, taking the lysate dilution factor into account.
To normalise for differences in cell number and total protein concentration, the final result was expressed as ng ICAM-1 per mg of total protein. […]

[5] = agent 1 μM during 5-day 1 μM dexamethasone pre-treatment

Row | Molecule | Effective? (suppression of ICAM-1 synthesis in chronically stressed endothelial cells) [1, 5] | Effect on glucocorticoid effects on levels of MMP-1 expression following PMA-induced acute stress [2] | Effect on glucocorticoid effects on levels of procollagen expression following PMA-induced acute stress [3] | Effect on increased induction of ICAM-1 post-oxidative stress ([4]; 200 nM CRH receptor antagonist during 5-day CRH pre-treatment, then PMA) | Level of ICAM-1 relative to that induced by oxidative stress after pre-treatment with CRH for five days ([4]; 200 nM CRH receptor antagonist during CRH pre-treatment) | Change in ICAM-1 secretion after chronic CRH treatment ([4]; 1 to 100 nM CRH daily for 5 days, then PMA, vs untreated cells) | Effective? (suppression of ICAM-1 synthesis in chronically stressed endothelial cells) ([1]; agent 10 μg/ml during 5-day 1 μM dexamethasone pre-treatment)
1 | COc1cc(/C=C/C(=O)CC(=O)/C=C/c2ccc(O)c(OC)c2)ccc1O [Curcumin] | Yes | inhibited the effects of glucocorticoid | inhibited the effects of glucocorticoid | – | – | – | –
2 | CC(C)=CCC[C@](C)(O[C@@H]1O[C@H](CO[C@@H]2O[C@@H](CO)[C@H](O)[C@H]2O)[C@@H](O)[C@H](O)[C@H]1O)[C@H]1CC[C@]2(C)[C@@H]1[C@H](O)C[C@@H]1[C@@]3(C)CC[C@H](O[C@@H]4O[C@H](CO)[C@@H](O)[C@H](O)[C@H]4O[C@@H]4O[C@H](CO)[C@@H](O)[C@H](O)[C@H]4O)C(C)(C)[C@@H]3CC[C@]12C [Ginsenoside Rc] | Yes | inhibited the effects of glucocorticoid | inhibited the effects of glucocorticoid | – | – | – | –
3 | CC(C)=CCC[C@](C)(O[C@@H]1O[C@H](CO[C@@H]2O[C@H](CO)[C@@H](O)[C@H](O)[C@H]2O)[C@@H](O)[C@H](O)[C@H]1O)[C@H]1CC[C@]2(C)[C@@H]1[C@H](O)C[C@@H]1[C@@]3(C)CC[C@H](O[C@@H]4O[C@H](CO)[C@@H](O)[C@H](O)[C@H]4O[C@@H]4O[C@H](CO)[C@@H](O)[C@H](O)[C@H]4O)C(C)(C)[C@@H]3CC[C@]12C [Ginsenoside Rb1] | Yes | inhibited the effects of glucocorticoid | inhibited the effects of glucocorticoid | – | – | – | –
4 | astressin | – | – | – | only partially blocked | approximately half | – | –
5 | CRH: Corticotrophin Releasing Hormone, Calbiochem 05-23-0050 (SEEPPISLDLTFHLLREVLEMARAEQLAQQAHSNRKLMEII; ends and bridges not checked; UniProt P06850 154-194, looked up) | – | – | – | – | – | significant increase | –
6 | C/C(=C\CC/C(C)=C/CCC1[C@](C)(O)CC[C@H]2C(C)(C)C(=O)CC[C@]12C)CC/C=C(\C)C(=O)O (stereo partly drawn) [Commipheric acid] | – | inhibited the effects of glucocorticoid | inhibited the effects of glucocorticoid | – | – | – | Yes

Source: patent publication US20080254152A1, “Methods for Reducing the Effects of Stress on Skin Condition” (priority 2003, published 2008)
